The subject of series [1] is B6 ALL cells. Briefly: Cell viability assay, B6 ALL cells. It counts as cell-based, mouse.
The next series deals with DG75 cells. Briefly: Cell viability assay, DG75 cells. To be noted: 72 hour exposure prior to viability. The class given is cell-based, human.
The next series relates to Molt-4 cells. Briefly: Cell viability assay, Molt-4 cells. The class given is cell-based, human. To be noted: 72 hour exposure prior to viability.
For another series, the system named is SUP-B15 cells. Put plainly: Cell viability assay, SUP-B15 cells. It counts as cell-based, human. The note with it: 72 hour exposure prior to viability.
For a further series, the system named is CCRF-CEM cells. Briefly: Cell viability assay, CCRF-CEM cells. To be noted: 72 hour exposure prior to viability. It counts as cell-based, human.
Series [2] deals with B6 ALL cells. Briefly: Annexin V / PI apoptosis assay, B6 ALL cells. It counts as cell-based, mouse. Here is the method:
(§1) Cells were seeded in 6-well μ[…] in 3 mls, grown for 2 days and treated with the indicated drug. After centrifugation and washing in cold PBS cells were stained with PI (Sigma Aldrich, St. Louis, Mo.) and APC-conjugated Annexin V in a binding buffer (0.1 M Hepes (pH 7.4), 1.4 M NaCl, and 25 mM CaCl2 solution) (BD Pharmingen, San Jose, Calif.) according to the manufacturer's protocol. Flow cytometric analysis was conducted on a Accuri flow cytometer (BD Biosciences). […] FIG. 1 A) Flow cytometry of Annexin V assay. […] B) Quantitation of non-apoptotic cells.

For a further series, the system named is SUP-B15 ALL cells. Briefly: Annexin V / PI apoptosis assay, SUP-B15 cells. It counts as cell-based, human. Here is the method: as §1
Another series concerns the target T1, TS (Homo sapiens, UniProt P04818).
T1 construct: Jurkat cells were exposed to 10 nM FdUMP[10] or 100 nM 5-FU for the indicated time, lysed and assayed for TS activity; endogenous in cells; host or cells: Jurkat
Put plainly: TS catalytic activity in treated Jurkat cells. It counts as cell-based. Here is the method:
Cells were plated at 1.5×10^6 cells in 100 mm2 plates and grown overnight in RPMI 1640 medium with 20% FBS. Cells were exposed to the indicated drug for 8, 16, 24, or 48 hours. Cells were then harvested in 25 mM Tris-HCl, pH 7.4 with Complete Protease Inhibitor Cocktail (Roche), put through 2 freeze/thaw cycles, and vortexed. The lysates were centrifuged at 10,000×g for 10 minutes at 4° C. TS assays were performed in a final volume of 200 μl containing 75 μM 5,10 methylene tetrahydrofolate in 0.5 M NaOH (Schircks Laboratories, Switzerland), 10 μM dUMP, 200,000 dpm of 3H-dUMP (Moravek Biochemicals), 100 μM 2-mercaptoethanol, and 25 mM KH2PO4, pH 7.4. Cell lysate (400 μg of protein) was added to the reaction buffer. Reactions were incubated at 37° C. for 30 minutes and stopped by addition of 100 μl of 20% TCA, incubated for 5 minutes on ice. 200 μL of activated charcoal solution (10 g activated charcoal, 0.25 g BSA, 0.25 g dextran sulfate, in 100 ml of water) was added, vortexed and maintained at room temperature for 10 minutes. Reactions were centrifuged at 10,000×g for 30 minutes. 200 μL aliquots of the supernatant were read by scintillation counting. All reactions were repeated a minimum of three times.
(A) TS inhibition assay. Jurkat cells were exposed to 10 nM FdUMP[10] or 100 nM 5-FU for the indicated time, lysed and assayed for TS activity. Activity is plotted as percentage of control. […]

Series [3] is described as follows: Toxicology study in normal Balb/c mice (histopathology of bone marrow and GI tract).
Procedure: Normal Balb/c mice were treated with identical dose, schedule and route of each drug as in the efficacy studies (i.e. Day 1, 3, 5 and 7). 72 hours after the last dose, animals were sacrificed, bilateral femoral cells harvested and organs fixed in 10% neutral buffered formalin followed by routine tissue processing and sectioning for hematoxylin and eosin staining. Slides were then reviewed by a veterinary pathologist using a Nikon Eclipse 50i light microscope. Photographs of tissues were taken using the NIS Elements D3.10 camera and software system.
Animals were sacrificed 72 hours following their last dose. BM=bone marrow, LI=large intestine, SI=small intestine.
The 5-FU dose was chosen as it delivers the exact same amount of fluoropyrimidine as the F10 dosed at 300 mg/kg. GI tract and bone marrow slides were analyzed by a veterinary pathologist blinded to treatment.
Series [4] relates to Ara-C resistant B6 ALL cells. Put plainly: C57Bl/6 mice injected with Ara-C resistant B6 ALL cells, survival. It counts as in vivo. The note with it: control median 12 days. Here is the method: (§2) Committee approved all mouse experiments. […] Control animals were injected with PBS.
A) Cell viability assays.

In series [5] the test system is Ara-C resistant B6 ALL cells. Briefly: Cell viability assay, Ara-C resistant B6 ALL lines. The note with it: Mus musculus, 72 h, read-out: average IC50 of cytarabine, relapsed (resistant) cells.
Procedure: (§3) All human cell lines were maintained in RPMI media (Gibco, Carlsbad, Calif.) supplemented with 10% FBS, penicillin and streptomycin. Cells were grown at 37° C. with 5% CO2. Viability assays were done using the Cell Titer-Glo assay (Promega, Madison, Wis.) according to the manufacturer's protocol or by Trypan blue exclusion assay using the Countess cell counting system (Invitrogen, Carlsbad, Calif.). All murine cells were maintained in stem cell media (40% DMEM, 40% IMDM, 20% FBS, supplemented with murine SCF to 10 ng/ml, murine IL6 to 2 ng/ml, and murine IL3 to 0.4 ng/ml).
When the mice were moribund bilateral femur cells from 4 separate animals were harvested and they were placed in culture.
Series [6] deals with Jurkat cells, a human T cell ALL line. Put plainly: Sensitivity of Jurkat cells to F10. The class given is cell-based. An excerpt:
One pathway that the inventors of the present invention believed could be exploited was the increased uptake of oligonucleotides by ALL cells. F10 is a poison deoxy-oligonucleotide that is a 10mer of the TS inhibitory 5-FU metabolite, 5-fluoro-2′-deoxyuridine-5′-O-monophosphate (FdUMP[10]) SEQ ID NO: 1. […] Activity of these targets is important for any replicating cell regardless of driving mutations. […] In this invention, the activity, toxicity and uptake of F10 in preclinical models of ALL was determined.

The subject of series [7] is Baf-3 cells expressing the T315I variant of BCR-ABL. Briefly: Syngeneic Baf-3 BCR-ABL T315I model in Balb/c mice, survival. To be noted: 300 mg/kg tail vein QOD x4 doses; p=0.0013. It counts as in vivo. Here is the method:
as §2

For series [8], the system named is B6 ALL cells. Put plainly: Engraftment of treated B6 ALL cells in syngeneic C57Bl/6 mice. It counts as in vivo, mouse. To be noted: cells treated with 50 nM F10 for 24 hours prior to injection. An excerpt:
B) Engraftment of human HSCs.

For series [9], the system named is panel of human and mouse ALL cell lines. The note with it: for IC50: 72 hours.
Procedure: as §3
In order to assess the activity of F10 a panel of human and mouse ALL cell lines were exposed to a titration of F10, 5-FU, cytarabine or doxorubicin. After 72 hours viability was assessed and the IC50 values for each was determined.
For series [10] the following is noted: mouse, in vivo.
The next series concerns DG-75 tumors. Briefly: DG75 xenograft in nude mice. To be noted: 300 mg/kg tail vein QOD for 5 doses.
In a further series the test system is Jurkat tumors. Briefly: Jurkat xenograft in nude mice. The note with it: 300 mg/kg tail vein QOD for 5 doses.
A further series has as its system SUP-B15 tumors. Briefly: SUP-B15 xenograft in nude mice. The note with it: 300 mg/kg tail vein QOD for 5 doses.
The test system of series [11] is B6 ALL cells. Put plainly: Syngeneic B6 ALL model in C57Bl/6 mice, survival. To be noted: 300 mg/kg tail vein QOD.
Procedure: (§4) Committee approved all mouse experiments. Luciferase-tagged leukemia cells were transplanted into 6- to 8-wk-old C57Bl/6 or Balb/c recipient mice by tail-vein injection of 1×10^6 viable cells. Mice were monitored by bioluminescent imaging on day 6. Imaging was performed using an IVIS100 imaging system (Caliper LifeSciences, Hopkinton, Mass.). Mice were injected with 150 mg/kg D-Luciferin (Gold Biotechnology, St. Louis, Mo.), anesthetized with isoflurane, and imaged for 2 min. For the xenograft studies 6-8-wk old nude mice were subcutaneously injected with 2×10^6 cells mixed with 200 μl matrigel (BD Bioscience). Chemotherapy was initiated upon detection of clear signals or reproducibly palpable flank tumors. Mice were treated with 300 mg/kg FdUMP[10] by tail vein injection. Control animals were injected with PBS. Repeat luciferase imaging or tumor volume measurements were performed following treatment.
B) Survival of Balb/c mice injected with Baf-3 cells expressing the T315I variant of BCR-ABL treated with saline or F10 at 300 mg/kg QOD ×4 doses as indicated. […] D) Volumes of Jurkat tumors in nude mice treated with saline or F10 at 300 mg/kg QOD ×5 doses as indicated. […] F) Survival of all xenograft bearing mice from time of injection treated with saline or F10 at 300 mg/kg QOD ×5 doses as indicated. All p values were derived from log rank tests.
In this system Baf-3 cells were infected with an MSCV based virus that expressed the T315 variant of BCR-ABL seen in many cases of relapsed Philadelphia chromosome positive ALL^8. […] Nude mice were subcutaneously injected with 2×10^6 cells in matrigel and once a reproducibly palpable tumor was established were treated with F10 at 300 mg/kg or saline by tail vein injection QOD for 5 doses.
Series [12] concerns SUP-B15, Jurkat, and DG75 human ALL cell lines in xenograft models. Put plainly: All xenograft bearing mice (SUP-B15, Jurkat, DG75), survival and eradication. The note with it: 300 mg/kg QOD for 5 doses.
Procedure: as §4
(§5) B) Survival of Balb/c mice injected with Baf-3 cells expressing the T315I variant of BCR-ABL treated with saline or F10 at 300 mg/kg QOD ×4 doses as indicated. […] D) Volumes of Jurkat tumors in nude mice treated with saline or F10 at 300 mg/kg QOD ×5 doses as indicated. […] F) Survival of all xenograft bearing mice from time of injection treated with saline or F10 at 300 mg/kg QOD ×5 doses as indicated. All p values were derived from log rank tests. […]
[13] abbreviates: 72 hour exposure prior to viability, read-out: IC50 B6 ALL.
The mark [14] stands for this setting: 5-FU 121 mg/kg QOD x4, sacrificed 72 hours after last dose.
The mark [15] stands for this setting: Mus musculus, 72 hour exposure prior to viability, read-out: IC50 B6 ALL.
Where [16] appears, read: F10 300 mg/kg QOD x4, sacrificed 72 hours after last dose.

Like-named read-outs stand apart in the source and are kept apart here.

From patent US20170080009A1, “Oligonucleotide Compositions and Methods for Treating Acute Lymphoblastic Leukemia” (priority 2014, published 2017) come the findings set out here.

T1 sequence (P04818 whole entry): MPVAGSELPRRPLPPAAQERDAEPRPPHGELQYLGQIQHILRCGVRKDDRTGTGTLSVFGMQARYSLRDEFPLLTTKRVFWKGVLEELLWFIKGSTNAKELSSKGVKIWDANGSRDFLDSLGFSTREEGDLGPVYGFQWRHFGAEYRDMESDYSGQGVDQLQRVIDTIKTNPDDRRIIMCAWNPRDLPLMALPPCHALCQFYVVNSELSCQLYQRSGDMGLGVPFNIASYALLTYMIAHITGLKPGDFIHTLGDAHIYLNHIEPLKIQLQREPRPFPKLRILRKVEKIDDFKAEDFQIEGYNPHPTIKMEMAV
Procedure for DG-75 tumors: as §4, §5
Procedure for Jurkat tumors: as §4, §5
Procedure for SUP-B15 tumors: as §4, §5

For orientation: IC50 means the concentration needed to halve the response being measured. Regarding `O=c1[nH]cc(F)c(=O)[nH]1` [5-FU, reference compound], the IC50 is 799 nM in the series on B6 ALL cells [1] (setting [13]); 14000 nM with DG75 cells; 4960 nM in the series with Molt-4 cells; 425 nM with SUP-B15 cells; more than 50000 nM in the series on CCRF-CEM cells. Besides, the “induction of apoptosis (non-apoptotic cells vs controls)” value in the series with B6 ALL cells [2] (100 nM 5-FU, 72 hours) is reported as “not significantly different from controls”; with SUP-B15 ALL cells (100 nM 5-FU, 72 hours) it was “not significantly different from controls”. Also, at TS (100 nM 5-FU, compared with 10 nM F10), the “TS inhibition (activity as percentage of control)” value is reported as “could not be achieved by 5-FU”. For the same compound, in series [3] (setting [14]), the “GI tract toxicity (histopathology)” value was “abundant tissue damage and immune cell infiltration”. Also, the “bone marrow toxicity (histopathology)” value in [3] (setting [14]) was “pancytopenic and hemorrhagic marrow”.

`Nc1ccn([C@@H]2O[C@H](CO)[C@@H](O)[C@@H]2O)c(=O)n1` [Cytarabine]: the half-inhibitory concentration (IC50) was found to be 11.9 nM with B6 ALL cells [1] (setting [15]); 11 nM in the series with B6 ALL cells [1] (Mus musculus, parental B6 ALL, 72 hours, read-out: IC50 of cytarabine, parental cell line); 64.3 nM in the series on DG75 cells (Homo sapiens, DG-75); 10.6 nM in the series on Molt-4 cells (Homo sapiens, MOLT-4); 8.32 nM in the series with CCRF-CEM cells (Homo sapiens, CCRF-CEM); 23 nM in series [5]. Besides, in series [4] (cytarabine 100 mg/kg QOD), the “survival compared with control” value was “lived only a day longer”.

`COc1cccc2c1C(=O)c1c(O)c3c(c(O)c1C2=O)C[C@@](O)(C(=O)CO)C[C@@H]3O[C@H]1C[C@H](N)[C@H](O)[C@H](C)O1` [Doxorubicin]: the IC50 in the series on B6 ALL cells [1] (setting [15]) stood at 4.84 nM; in the series with DG75 cells (Homo sapiens, DG-75), 150 nM; with Molt-4 cells (Homo sapiens, MOLT-4), 19.5 nM; with SUP-B15 cells (Homo sapiens, SUP-B15) it was 19.4 nM; with CCRF-CEM cells (Homo sapiens, CCRF-CEM), 36.3 nM.

Take FdUMP[10] [F10]: the IC50 with B6 ALL cells [1] (setting [13]) worked out at 0.07 nM; with DG75 cells it was 4.12 nM; in the series with Molt-4 cells it was 1.88 nM; with SUP-B15 cells, 0.21 nM; in the series with CCRF-CEM cells, 1.14 nM; in series [9] (read-out: average IC50 value for all cell lines, average over all cell lines), 1.48 nM. The half-inhibitory concentration (IC50) in [9] (read-out: range of IC50 values over all cell lines, range over cell lines) is 0.07 to 5.4 nM. Also, the “sensitivity of Jurkat cells” value in [6] is “low nanomolar sensitivity”. The “induction of apoptosis (Annexin V and PI positive cells)” value is “robust induction of Annexin V and PI positive cells” in the series on B6 ALL cells [2] (1 nM F10, 72 hour exposure); “robust induction of Annexin V and PI positive cells” in the series with SUP-B15 ALL cells (1 nM F10, 72 hour exposure). The survival vs saline entry in series [7] is on record as “significant prolongation of survival”. In addition, at TS (10 nM F10, 8-48 hours), the “TS inhibition (activity as percentage of control)” value is “profound and prolonged TS inhibition”. In addition, the median survival in series [4] (F10 300 mg/kg QOD) is reported as 31 days. For the same compound, in the series on B6 ALL cells [8], the “engraftment of B6 ALL cells (bioluminescence)” value is on record as “significantly reduced engraftment”. Besides, the “potency relative to 5-FU” value in series [9] is “more than 1000 times”. In addition, the “body weight of leukemic mice” value in [10] is recorded as “protected the mice from leukemia induced weight loss”. Also, the tumor volume response result in the series with DG-75 tumors, in the series on Jurkat tumors and in the series with SUP-B15 tumors was “tumor regression” each time. In addition, the “median OS” value with B6 ALL cells [11] (4 treatments, control 15 days, p<0.0001) came to 18 days; with B6 ALL cells [11] (6 treatments, p=0.0009), 24 days; with B6 ALL cells [11] (9 treatments, p=0.0001), 30 days. Besides, the tumor eradication result in series [12] (in several cases) is listed as “complete eradication of the tumor”. The “survival of all xenograft bearing mice vs saline” value in series [12] (p=0.0098) is listed as “significant survival advantage”. The “GI tract toxicity (histopathology)” value in series [3] (setting [16]) was “only a mild increase in apoptotic cells”. The “bone marrow toxicity (histopathology)” value in series [3] (setting [16]) is “only minimal marrow toxicity”.
